SMILES strings stand for the structures. pIC50: −log10 of the molar value.

Data on 26 compounds can be found in patent US20240140938A1, “PREPARATION OF TETRAHYDROINDAZOLE DERIVATIVES AS NOVEL DIACYLGLYCERIDE O-ACYLTRANSFERASE 2 INHIBITORS” (MERCK SHARP & DOHME LLC, priority 2020, published 2024).

Sequence of human DGAT2 (hDGAT2) (Q96PD7 whole entry): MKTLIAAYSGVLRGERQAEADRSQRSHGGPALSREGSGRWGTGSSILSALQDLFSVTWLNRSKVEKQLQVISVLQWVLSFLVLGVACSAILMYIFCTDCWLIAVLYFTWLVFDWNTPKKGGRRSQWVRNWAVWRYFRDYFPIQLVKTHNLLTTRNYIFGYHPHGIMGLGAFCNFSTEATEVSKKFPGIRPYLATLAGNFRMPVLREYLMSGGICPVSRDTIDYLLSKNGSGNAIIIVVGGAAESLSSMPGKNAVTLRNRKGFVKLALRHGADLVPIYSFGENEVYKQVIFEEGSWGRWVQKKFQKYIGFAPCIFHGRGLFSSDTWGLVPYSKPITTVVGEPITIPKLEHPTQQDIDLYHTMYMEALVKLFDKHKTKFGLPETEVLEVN

The experiment addresses human DGAT2 (hDGAT2) (Homo sapiens (Human), UniProt Q96PD7). In words: DGAT2 Enzymatic Activity Assay. The following applies: hDGAT2 Sf-9 membrane prep; 13C18-triolein product by LC/MS/MS; 25 μM diolein, 5 μM 13C oleoyl-CoA. Format: biochemical. The essentials:
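Enzyme source was membrane fractions from Sf-9 cells infected with untagged hDGAT2 baculovirus. Reactions ran at room temperature, and product 13C18-triolein was quantified by LC/MS/MS against a 13C21-triolein internal standard. % inhibition was normalised to high and low controls, and IC50 derived from it.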
By pIC50 is commonly meant the negative decadic logarithm of the IC50, by convention in mol/L. For `[2H]C([2H])([2H])C([2H])([2H])Oc1cc(-c2nn(C(C)C)c3c2CC[C@@H](C(=O)NC2(C)CCS(=O)(=O)CC2)C3)c(F)cn1` [Example 50, (R)-3-(2-(ethoxy-d5)-5-fluoropyridin-4-yl)-1-isopropyl-N-(4-methyl-1,1-dioxidotetrahydro-2H-thiopyran-4-yl)-4,5,6,7-tetrahydro-1H-indazole-6-carboxamide], the pIC50 was 7.29. In turn, `[2H]C([2H])([2H])C([2H])(n1nc(-c2cc(OC(F)F)ccc2F)c2c1C[C@H](C(=O)NC1(C#N)CCS(=O)(=O)CC1)CC2)C([2H])([2H])[2H]` [Example 51, (R)-N-(4-cyano-1,1-dioxidotetrahydro-2H-thiopyran-4-yl)-3-(5-(difluoromethoxy)-2-fluorophenyl)-1-(propan-2-yl-d7)-4,5,6,7-tetrahydro-1H-indazole-6-carboxamide] showed a pIC50 of 8.37. Turning to `CC(C)n1nc(-c2cc(OC(F)F)ccc2F)c2c1C[C@H](C(=O)NC1(C#N)CCS(=O)(=O)CC1)CC2` [Example 52, (R)-N-(4-cyano-1,1-dioxidotetrahydro-2H-thiopyran-4-yl)-3-(5-(difluoromethoxy)-2-fluorophenyl)-1-isopropyl-4,5,6,7-tetrahydro-1H-indazole-6-carboxamide], the negative logarithm of the IC50 (pIC50) is 8.33.

The compound `CCOc1ccc(F)c(-c2nn(C(C)C)c3c2CC[C@@H](C(=O)NC2(C)CCS(=O)(=O)CC2)C3)c1` [Example 54, (R)-3-(5-ethoxy-2-fluorophenyl)-1-isopropyl-N-(4-methyl-1,1-dioxidotetrahydro-2H-thiopyran-4-yl)-4,5,6,7-tetrahydro-1H-indazole-6-carboxamide] showed a pIC50 of 8.74. Next, `CC(C)n1nc(-c2cccc(OC(F)(F)F)c2)c2c1C[C@H](C(=O)NC1(C)CCS(=O)(=O)CC1)CC2` [Example 55, (R)-1-isopropyl-N-(4-methyl-1,1-dioxidotetrahydro-2H-thiopyran-4-yl)-3-(3-(trifluoromethoxy)phenyl)-4,5,6,7-tetrahydro-1H-indazole-6-carboxamide]: 7.06; `CC(C)n1nc(-c2cncc(OC(F)F)c2)c2c1C[C@H](C(=O)NC1(C)CCS(=O)(=O)CC1)CC2` [Example 56, (R)-3-(5-(difluoromethoxy)pyridin-3-yl)-1-isopropyl-N-(4-methyl-1,1-dioxidotetrahydro-2H-thiopyran-4-yl)-4,5,6,7-tetrahydro-1H-indazole-6-carboxamide]: 6.38; `CC1(NC(=O)[C@@H]2CCc3c(-c4cc(OC(F)F)ccc4F)nn(C4CCC4)c3C2)CS(=O)(=O)C1` [Example 57, (R)-1-cyclobutyl-3-(5-(difluoromethoxy)-2-fluorophenyl)-N-(3-methyl-1,1-dioxidothietan-3-yl)-4,5,6,7-tetrahydro-1H-indazole-6-carboxamide]: 7.64. In the case of `CCOC(=O)N1CCC(C)(NC(=O)[C@@H]2CCc3c(-c4cc(OC(F)F)ccc4F)nn(C(C)C)c3C2)C1` (stereo partly drawn) [Example 59, ethyl 3-((R)-3-(5-(difluoromethoxy)-2-fluorophenyl)-1-isopropyl-4,5,6,7-tetrahydro-1H-indazole-6-carboxamido)-3-methylpyrrolidine-1-carboxylate] it was 7.21; in that of `CC(C)NC(=O)N1CCC(C)(NC(=O)[C@@H]2CCc3c(-c4cc(OC(F)F)ccc4F)nn(C(C)C)c3C2)C1` (stereo partly drawn) [Example 60, (6R)-3-(5-(difluoromethoxy)-2-fluorophenyl)-1-isopropyl-N-(1-(isopropylcarbamoyl)-3-methylpyrrolidin-3-yl)-4,5,6,7-tetrahydro-1H-indazole-6-carboxamide], 7.53; in that of `CC(C)n1nc(-c2cc(OC(F)F)ccc2F)c2c1C[C@H](C(=O)NC1(C)CCN(C(=O)C3CC3)C1)CC2` (stereo partly drawn) [Example 61, (6R)-N-(1-(cyclopropanecarbonyl)-3-methylpyrrolidin-3-yl)-3-(5-(difluoromethoxy)-2-fluorophenyl)-1-isopropyl-4,5,6,7-tetrahydro-1H-indazole-6-carboxamide], 7.58. Next, `CC(C)n1nc(-c2cccc(OC(F)F)c2)c2c1C[C@H](C(=O)NCc1cccnc1)CC2` [Example 62, (R)-3-(3-(difluoromethoxy)phenyl)-1-isopropyl-N-(pyridin-3-ylmethyl)-4,5,6,7-tetrahydro-1H-indazole-6-carboxamide]: 5.09; `CC(C)n1nc(-c2cccc(OC(F)F)c2)c2c1C[C@H](C(=O)NCc1cnoc1)CC2` [Example 63, (R)-3-(3-(difluoromethoxy)phenyl)-1-isopropyl-N-(isoxazol-4-ylmethyl)-4,5,6,7-tetrahydro-1H-indazole-6-carboxamide]: 5.34; `CC(C)N1CCC(NC(=O)[C@@H]2CCc3c(-c4cc(OC(F)F)ccc4F)nn(C(C)C)c3C2)C1=O` (stereo partly drawn) [Example 64, (6R)-3-(5-(difluoromethoxy)-2-fluorophenyl)-1-isopropyl-N-(1-isopropyl-2-oxopyrrolidin-3-yl)-4,5,6,7-tetrahydro-1H-indazole-6-carboxamide]: 6.21.

`CC(C)n1nc(-c2cccc(OC(F)F)c2)c2c1C[C@H](C(=O)N[C@@H](C)CO)CC2` [Example 65, (R)-3-(3-(difluoromethoxy)phenyl)-N-((S)-1-hydroxypropan-2-yl)-1-isopropyl-4,5,6,7-tetrahydro-1H-indazole-6-carboxamide] showed a pIC50 of 5.14. Next, `COCC(C)(C)NC(=O)[C@@H]1CCc2c(-c3cccc(OC(F)F)c3)nn(C(C)C)c2C1` [Example 66, (R)-3-(3-(difluoromethoxy)phenyl)-1-isopropyl-N-(1-methoxy-2-methylpropan-2-yl)-4,5,6,7-tetrahydro-1H-indazole-6-carboxamide]: 5.88; `Cc1nnc(NC(=O)[C@@H]2CCc3c(-c4cccc(OC(F)F)c4)nn(C4CCOCC4)c3C2)s1` [Example 67, (R)-3-(3-(difluoromethoxy)phenyl)-N-(5-methyl-1,3,4-thiadiazol-2-yl)-1-(tetrahydro-2H-pyran-4-yl)-4,5,6,7-tetrahydro-1H-indazole-6-carboxamide]: below 5.00. In the case of `CC(C)n1nc(-c2cncc(OC(F)F)c2)c2c1C[C@H](C(=O)N[C@@H](C)CN1CCO[C@H](C)C1)CC2` [Example 68, (R)-3-(5-(difluoromethoxy)pyridin-3-yl)-1-isopropyl-N-((S)-1-((R)-2-methylmorpholino)propan-2-yl)-4,5,6,7-tetrahydro-1H-indazole-6-carboxamide] it was below 5.00. Next, `CCC1(NC(=O)[C@@H]2CCc3c(-c4cccc(OC(F)F)c4)nn(C(C)C)c3C2)CS(=O)(=O)C1` [Example 69, (R)-3-(3-(difluoromethoxy)phenyl)-N-(3-ethyl-1,1-dioxidothietan-3-yl)-1-isopropyl-4,5,6,7-tetrahydro-1H-indazole-6-carboxamide]: 7.05; `CC(C)n1nc(-c2cccc(OC(F)F)c2)c2c1C[C@H](C(=O)NCCN1CCS(=O)(=O)CC1)CC2` [Example 70, (R)-3-(3-(difluoromethoxy)phenyl)-N-(2-(1,1-dioxidothiomorpholino)ethyl)-1-isopropyl-4,5,6,7-tetrahydro-1H-indazole-6-carboxamide]: 4.74; `CNS(=O)(=O)CCNC(=O)[C@@H]1CCc2c(-c3cccc(OC(F)F)c3)nn(C(C)C)c2C1` [Example 71, (R)-3-(3-(difluoromethoxy)phenyl)-1-isopropyl-N-(2-(N-methylsulfamoyl)ethyl)-4,5,6,7-tetrahydro-1H-indazole-6-carboxamide]: below 5.00.

Turning to `CC(=O)n1nc(-c2cccc(OC(F)F)c2)c2c1C[C@H](C(=O)N[C@@]1(C)CCS(=O)(=O)C1)CC2` [Example 73, (R)-1-acetyl-3-(3-(difluoromethoxy)phenyl)-N-((S)-3-methyl-1,1-dioxidotetrahydrothiophen-3-yl)-4,5,6,7-tetrahydro-1H-indazole-6-carboxamide], the pIC50 is below 5.00. In the case of `C[C@]1(NC(=O)[C@@H]2CCc3c(-c4cccc(OC(F)F)c4)nn(C(=O)C4CC4)c3C2)CCS(=O)(=O)C1` [Example 74, (R)-1-(cyclopropanecarbonyl)-3-(3-(difluoromethoxy)phenyl)-N-((S)-3-methyl-1,1-dioxidotetrahydrothiophen-3-yl)-4,5,6,7-tetrahydro-1H-indazole-6-carboxamide] it was 5.54. In the case of `C[C@]1(NC(=O)[C@@H]2CCc3c(-c4cccc(OC(F)F)c4)nn(C(=O)C4CCOCC4)c3C2)CCS(=O)(=O)C1` [Example 75, (R)-3-(3-(difluoromethoxy)phenyl)-N-((S)-3-methyl-1,1-dioxidotetrahydrothiophen-3-yl)-1-(tetrahydro-2H-pyran-4-carbonyl)-4,5,6,7-tetrahydro-1H-indazole-6-carboxamide], the pIC50 is below 5.00. On to `C[C@]1(NC(=O)[C@@H]2CCc3c(-c4cccc(OC(F)F)c4)nn(C(=O)c4ccccc4)c3C2)CCS(=O)(=O)C1` [Example 76, (R)-1-benzoyl-3-(3-(difluoromethoxy)phenyl)-N-((S)-3-methyl-1,1-dioxidotetrahydrothiophen-3-yl)-4,5,6,7-tetrahydro-1H-indazole-6-carboxamide], for which the pIC50 was 5.56. In the case of `C[C@]1(NC(=O)[C@@H]2CCc3c(-c4cccc(OC(F)F)c4)nn(Cc4ccccc4)c3C2)CCS(=O)(=O)C1` [Example 77, (R)-1-benzyl-3-(3-(difluoromethoxy)phenyl)-N-((S)-3-methyl-1,1-dioxidotetrahydrothiophen-3-yl)-4,5,6,7-tetrahydro-1H-indazole-6-carboxamide] it was 6.24.

Compound `C[C@]1(NC(=O)[C@@H]2CCc3c(-c4cccc(OC(F)F)c4)nn(CC4CCOCC4)c3C2)CCS(=O)(=O)C1` [Example 78, (R)-3-(3-(difluoromethoxy)phenyl)-N-((S)-3-methyl-1,1-dioxidotetrahydrothiophen-3-yl)-1-((tetrahydro-2H-pyran-4-yl)methyl)-4,5,6,7-tetrahydro-1H-indazole-6-carboxamide] had a pIC50 below 5.00.
